System: Hog1
Assay: Western blotting for total and phosphorylated Hog1
Assay type: cell-based, Cryptococcus neoformans
Method: C. neoformans H99 overnight cultures were diluted to OD = 0.1 in YPD and incubated at 30°C for 3 hours with shaking. Cultures were split into four subcultures and treated with DMSO or 1 µg/mL 1 (two each) for 2 hours at 30°C, then water or 1 M NaCl was added to one culture of each treatment and incubated for an additional 30 min at 30°C. Cell pellets were snap frozen and stored at −80°C. Protein was extracted in extraction buffer (10 mM HEPES, pH 7.4–7.9, 1.5 mM MgCl2, 10 mM KCl, 1 mM DTT, 1× HALT protease and phosphatase inhibitor cocktail) by bead beading for 30 s on 60 s off with incubation on ice five times. The supernatant was removed from glass beads, and protein concentration was quantified by Bradford protein assay. Twenty micrograms of protein was loaded on a 10% SDS-PAGE gel and run at 80 V. Samples were transferred to nitrocellulose membrane for 1 hour at 100 V, then the membrane was stained with Ponceau for 15 min at RT. Membranes were blocked with 5% bovine serum albumin (BSA) in Tris-buffered saline with Tween 20 (TBST) for 1 hour at room temperature, then incubated with 1:10,000 rabbit anti-p-p38 (Phospho-p38 MAPK, # 9211; Cell Signaling) in 5% BSA/TBST or 1:5,000 custom Hog1 antibody # R02361 (GenScript) overnight at 4°C. […]

Question: Which Hog1 phosphorylation (1 µg/mL 1 alone for 2 hours at 30°C) does the source give for `OC1CC(c2cc(N3CCC(CCc4ccccc4)CC3)ncn2)C1` (centres unmarked) [compound 1] here?
Answer: activation of Hog1 via phosphorylation

Question: What about the “Hog1 phosphorylation, combination with salt” value (1 µg/mL 1 for 2 hours, then 1 M NaCl 30 min) of the same molecule?
Answer: additive
